Laboratory results reported in ChEMBL document CHEMBL4507268 (2021).

How the values were obtained:
Conditions in all cases: Compound concentration 1000.0 nM
[1] = target: cAMP-dependent protein kinase catalytic subunit alpha (Homo sapiens) (UniProt P17612)
[2] = target: Mast/stem cell growth factor receptor Kit (Homo sapiens) (UniProt P10721)
[3] = target: Proto-oncogene tyrosine-protein kinase receptor Ret (Homo sapiens) (UniProt P07949)
[4] = target: STE20/SPS1-related proline-alanine-rich protein kinase (Homo sapiens) (UniProt Q9UEW8)
[5] = target: T1, NUAK family SNF1-like kinase 2 (Homo sapiens) (UniProt Q9H093)
T1 sequence (whole entry): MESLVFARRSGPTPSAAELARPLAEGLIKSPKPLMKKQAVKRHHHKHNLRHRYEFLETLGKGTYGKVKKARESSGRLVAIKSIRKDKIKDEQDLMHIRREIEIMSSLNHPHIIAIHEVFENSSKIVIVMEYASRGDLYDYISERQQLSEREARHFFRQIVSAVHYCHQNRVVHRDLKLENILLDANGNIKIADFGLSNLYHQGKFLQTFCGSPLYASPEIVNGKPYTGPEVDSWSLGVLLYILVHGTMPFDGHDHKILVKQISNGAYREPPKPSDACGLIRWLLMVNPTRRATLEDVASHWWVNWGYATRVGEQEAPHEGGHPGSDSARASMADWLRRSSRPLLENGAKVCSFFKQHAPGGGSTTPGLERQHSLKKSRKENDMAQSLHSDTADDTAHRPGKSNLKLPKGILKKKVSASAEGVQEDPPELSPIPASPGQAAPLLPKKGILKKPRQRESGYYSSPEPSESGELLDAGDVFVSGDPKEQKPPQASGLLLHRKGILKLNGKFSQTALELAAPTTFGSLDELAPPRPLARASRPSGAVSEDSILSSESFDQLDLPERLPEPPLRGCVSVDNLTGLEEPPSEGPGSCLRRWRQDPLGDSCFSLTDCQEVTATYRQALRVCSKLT

[6] = target: Cyclin-dependent kinase 4 (Homo sapiens) (UniProt P11802)
Cyclin-dependent kinase 4 (Homo sapiens), sequence (P11802 whole entry): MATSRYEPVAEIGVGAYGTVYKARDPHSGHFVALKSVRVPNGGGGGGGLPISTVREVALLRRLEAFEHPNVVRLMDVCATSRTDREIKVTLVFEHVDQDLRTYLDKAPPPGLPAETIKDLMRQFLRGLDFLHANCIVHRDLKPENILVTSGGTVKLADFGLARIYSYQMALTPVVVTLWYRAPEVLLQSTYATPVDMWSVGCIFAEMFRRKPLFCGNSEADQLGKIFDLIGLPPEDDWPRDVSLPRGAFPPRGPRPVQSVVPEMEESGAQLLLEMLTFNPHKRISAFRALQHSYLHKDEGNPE

[7] = target: Cyclin-dependent kinase 15 (Homo sapiens) (UniProt Q96Q40)
Cyclin-dependent kinase 15 (Homo sapiens), sequence (Q96Q40 whole entry): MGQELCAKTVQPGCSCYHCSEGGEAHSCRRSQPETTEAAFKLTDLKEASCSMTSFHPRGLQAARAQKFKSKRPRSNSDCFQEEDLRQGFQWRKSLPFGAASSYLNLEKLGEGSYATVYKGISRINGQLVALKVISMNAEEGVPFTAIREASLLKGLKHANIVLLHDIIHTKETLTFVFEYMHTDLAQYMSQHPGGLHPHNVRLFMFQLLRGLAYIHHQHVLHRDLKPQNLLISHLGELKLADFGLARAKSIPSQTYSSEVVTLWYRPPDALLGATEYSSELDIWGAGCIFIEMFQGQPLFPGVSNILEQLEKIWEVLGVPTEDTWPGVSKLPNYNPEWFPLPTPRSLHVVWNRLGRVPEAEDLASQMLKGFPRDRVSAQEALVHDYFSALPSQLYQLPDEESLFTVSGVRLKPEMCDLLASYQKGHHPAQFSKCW

[8] = target: T2, Dual specificity tyrosine-phosphorylation-regulated kinase 2 (Homo sapiens) (UniProt Q92630)
T2 sequence (whole entry): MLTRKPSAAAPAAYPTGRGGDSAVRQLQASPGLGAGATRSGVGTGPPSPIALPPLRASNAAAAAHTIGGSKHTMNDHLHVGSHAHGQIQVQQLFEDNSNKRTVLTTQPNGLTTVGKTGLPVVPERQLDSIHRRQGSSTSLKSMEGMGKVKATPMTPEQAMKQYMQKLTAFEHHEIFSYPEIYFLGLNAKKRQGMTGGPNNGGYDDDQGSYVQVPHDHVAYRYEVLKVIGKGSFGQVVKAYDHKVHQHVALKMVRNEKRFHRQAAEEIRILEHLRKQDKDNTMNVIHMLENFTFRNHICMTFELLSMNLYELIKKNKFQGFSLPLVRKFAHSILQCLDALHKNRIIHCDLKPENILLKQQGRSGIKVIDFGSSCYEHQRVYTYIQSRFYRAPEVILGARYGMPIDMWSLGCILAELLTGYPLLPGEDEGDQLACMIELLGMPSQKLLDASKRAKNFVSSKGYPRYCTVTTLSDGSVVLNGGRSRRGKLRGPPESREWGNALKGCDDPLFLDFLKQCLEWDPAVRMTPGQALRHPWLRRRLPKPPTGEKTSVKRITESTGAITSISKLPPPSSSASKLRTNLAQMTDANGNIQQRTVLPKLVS

[9] = target: Tyrosine-protein kinase CSK (Homo sapiens) (UniProt P41240)
[10] = target: Cyclin-dependent kinase 8 (Homo sapiens) (UniProt P49336)
Cyclin-dependent kinase 8 (Homo sapiens), sequence (P49336 whole entry): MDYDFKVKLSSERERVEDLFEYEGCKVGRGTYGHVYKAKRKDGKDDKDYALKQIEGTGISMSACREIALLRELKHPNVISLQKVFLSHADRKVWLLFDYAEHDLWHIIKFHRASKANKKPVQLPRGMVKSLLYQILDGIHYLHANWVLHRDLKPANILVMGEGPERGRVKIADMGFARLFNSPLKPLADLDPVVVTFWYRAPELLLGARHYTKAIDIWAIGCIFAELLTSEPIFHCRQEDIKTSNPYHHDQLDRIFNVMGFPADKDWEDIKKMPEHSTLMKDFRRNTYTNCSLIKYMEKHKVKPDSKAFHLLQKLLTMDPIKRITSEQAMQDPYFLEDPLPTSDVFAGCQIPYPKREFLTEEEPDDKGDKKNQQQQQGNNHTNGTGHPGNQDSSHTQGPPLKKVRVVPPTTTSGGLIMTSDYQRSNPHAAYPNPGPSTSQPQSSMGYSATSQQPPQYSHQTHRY

[11] = target: Serine/threonine-protein kinase 38-like (Homo sapiens) (UniProt Q9Y2H1)
Serine/threonine-protein kinase 38-like (Homo sapiens), sequence (Q9Y2H1 2-464 limits assumed): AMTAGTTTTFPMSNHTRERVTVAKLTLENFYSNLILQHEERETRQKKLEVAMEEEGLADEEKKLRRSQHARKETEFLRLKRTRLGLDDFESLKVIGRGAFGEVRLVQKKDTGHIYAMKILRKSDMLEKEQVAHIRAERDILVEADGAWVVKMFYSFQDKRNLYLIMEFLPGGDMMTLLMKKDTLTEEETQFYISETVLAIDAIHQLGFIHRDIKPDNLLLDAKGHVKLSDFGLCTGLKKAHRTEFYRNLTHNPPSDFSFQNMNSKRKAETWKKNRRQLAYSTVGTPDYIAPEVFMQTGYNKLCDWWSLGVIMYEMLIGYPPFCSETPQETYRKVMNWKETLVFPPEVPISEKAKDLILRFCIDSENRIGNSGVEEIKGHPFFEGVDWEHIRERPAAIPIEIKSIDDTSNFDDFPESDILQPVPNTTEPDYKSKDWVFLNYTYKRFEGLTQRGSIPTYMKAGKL

[12] = target: Casein kinase I isoform delta (Homo sapiens) (UniProt P48730)
Casein kinase I isoform delta (Homo sapiens), sequence (P48730 whole entry, looked up, canonical isoform): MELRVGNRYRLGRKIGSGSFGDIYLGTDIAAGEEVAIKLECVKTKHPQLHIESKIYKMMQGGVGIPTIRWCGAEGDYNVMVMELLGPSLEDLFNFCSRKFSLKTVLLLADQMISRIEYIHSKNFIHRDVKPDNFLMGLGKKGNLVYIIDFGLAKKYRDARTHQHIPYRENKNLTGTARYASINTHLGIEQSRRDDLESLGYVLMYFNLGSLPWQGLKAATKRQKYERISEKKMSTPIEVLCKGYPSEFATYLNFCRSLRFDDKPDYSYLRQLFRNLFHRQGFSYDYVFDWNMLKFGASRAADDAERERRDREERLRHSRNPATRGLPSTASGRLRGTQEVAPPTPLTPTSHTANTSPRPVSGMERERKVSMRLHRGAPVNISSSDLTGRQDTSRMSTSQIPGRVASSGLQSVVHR

[13] = target: Serine/threonine-protein kinase 33 (Homo sapiens) (UniProt Q9BYT3)
Serine/threonine-protein kinase 33 (Homo sapiens), sequence (Q9BYT3 whole entry, looked up): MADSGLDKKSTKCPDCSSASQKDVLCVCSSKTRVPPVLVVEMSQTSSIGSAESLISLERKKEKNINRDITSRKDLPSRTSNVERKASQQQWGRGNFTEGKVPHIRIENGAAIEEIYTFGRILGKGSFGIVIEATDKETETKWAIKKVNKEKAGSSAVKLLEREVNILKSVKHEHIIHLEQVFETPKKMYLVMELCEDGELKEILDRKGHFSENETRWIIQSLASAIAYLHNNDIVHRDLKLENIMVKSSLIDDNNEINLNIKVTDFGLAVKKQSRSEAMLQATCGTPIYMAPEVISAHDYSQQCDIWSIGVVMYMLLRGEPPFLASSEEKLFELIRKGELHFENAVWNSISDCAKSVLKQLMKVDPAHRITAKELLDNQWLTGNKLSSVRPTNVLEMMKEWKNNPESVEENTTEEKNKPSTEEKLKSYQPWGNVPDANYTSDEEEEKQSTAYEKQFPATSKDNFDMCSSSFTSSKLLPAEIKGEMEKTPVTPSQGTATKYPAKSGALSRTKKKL

[14] = target: T3, SNF-related serine/threonine-protein kinase (Homo sapiens) (UniProt Q9NRH2)
T3 sequence (whole entry): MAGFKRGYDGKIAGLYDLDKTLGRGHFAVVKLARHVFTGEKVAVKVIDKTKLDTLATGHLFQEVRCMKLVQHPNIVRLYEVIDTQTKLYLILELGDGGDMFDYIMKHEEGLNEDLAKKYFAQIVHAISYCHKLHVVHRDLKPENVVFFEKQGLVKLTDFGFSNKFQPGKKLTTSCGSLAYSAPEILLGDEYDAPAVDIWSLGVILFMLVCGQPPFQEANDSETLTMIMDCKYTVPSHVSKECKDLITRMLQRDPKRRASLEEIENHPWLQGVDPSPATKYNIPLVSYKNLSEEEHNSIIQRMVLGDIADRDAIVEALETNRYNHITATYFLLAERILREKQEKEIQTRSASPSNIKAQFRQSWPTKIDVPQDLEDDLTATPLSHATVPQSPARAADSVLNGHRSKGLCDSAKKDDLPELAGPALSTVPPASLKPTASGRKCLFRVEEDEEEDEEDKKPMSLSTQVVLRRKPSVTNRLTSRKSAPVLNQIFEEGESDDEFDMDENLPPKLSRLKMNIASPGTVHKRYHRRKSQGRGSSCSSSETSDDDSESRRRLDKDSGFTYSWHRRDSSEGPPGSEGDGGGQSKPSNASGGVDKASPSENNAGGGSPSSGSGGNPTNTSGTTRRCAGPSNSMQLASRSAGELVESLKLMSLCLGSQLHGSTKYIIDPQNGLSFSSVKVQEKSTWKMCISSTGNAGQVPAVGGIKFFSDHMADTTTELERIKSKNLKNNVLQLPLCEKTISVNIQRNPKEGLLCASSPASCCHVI

Measured: residual activity

Proto-oncogene tyrosine-protein kinase receptor Ret (Homo sapiens), sequence (P07949 whole entry): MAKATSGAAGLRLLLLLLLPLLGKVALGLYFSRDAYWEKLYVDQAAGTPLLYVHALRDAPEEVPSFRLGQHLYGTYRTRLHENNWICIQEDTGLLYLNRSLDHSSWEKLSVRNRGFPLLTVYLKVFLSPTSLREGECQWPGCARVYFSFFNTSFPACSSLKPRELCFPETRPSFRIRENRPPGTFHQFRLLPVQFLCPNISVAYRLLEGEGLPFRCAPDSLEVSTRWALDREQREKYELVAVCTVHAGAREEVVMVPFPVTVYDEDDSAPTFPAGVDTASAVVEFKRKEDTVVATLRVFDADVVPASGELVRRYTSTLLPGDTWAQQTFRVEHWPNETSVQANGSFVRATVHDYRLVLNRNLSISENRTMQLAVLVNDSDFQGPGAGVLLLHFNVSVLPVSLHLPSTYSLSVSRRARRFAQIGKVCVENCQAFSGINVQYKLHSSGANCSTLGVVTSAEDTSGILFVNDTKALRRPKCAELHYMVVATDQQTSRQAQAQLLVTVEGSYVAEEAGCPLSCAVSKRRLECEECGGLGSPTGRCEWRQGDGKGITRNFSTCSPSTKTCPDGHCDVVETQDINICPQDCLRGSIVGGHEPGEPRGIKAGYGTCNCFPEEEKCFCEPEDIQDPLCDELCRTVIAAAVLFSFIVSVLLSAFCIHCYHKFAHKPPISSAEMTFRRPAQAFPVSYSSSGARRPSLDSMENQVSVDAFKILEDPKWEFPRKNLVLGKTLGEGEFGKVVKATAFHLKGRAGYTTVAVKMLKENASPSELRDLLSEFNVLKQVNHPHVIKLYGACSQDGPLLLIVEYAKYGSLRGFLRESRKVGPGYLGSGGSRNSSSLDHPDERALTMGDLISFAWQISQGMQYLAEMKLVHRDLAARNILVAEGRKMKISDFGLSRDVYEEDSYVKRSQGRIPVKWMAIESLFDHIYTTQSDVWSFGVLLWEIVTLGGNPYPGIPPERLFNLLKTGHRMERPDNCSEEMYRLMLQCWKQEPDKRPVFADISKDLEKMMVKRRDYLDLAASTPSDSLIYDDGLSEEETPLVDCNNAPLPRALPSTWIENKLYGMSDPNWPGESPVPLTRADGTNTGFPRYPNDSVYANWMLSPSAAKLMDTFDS
Mast/stem cell growth factor receptor Kit (Homo sapiens), sequence (P10721 whole entry): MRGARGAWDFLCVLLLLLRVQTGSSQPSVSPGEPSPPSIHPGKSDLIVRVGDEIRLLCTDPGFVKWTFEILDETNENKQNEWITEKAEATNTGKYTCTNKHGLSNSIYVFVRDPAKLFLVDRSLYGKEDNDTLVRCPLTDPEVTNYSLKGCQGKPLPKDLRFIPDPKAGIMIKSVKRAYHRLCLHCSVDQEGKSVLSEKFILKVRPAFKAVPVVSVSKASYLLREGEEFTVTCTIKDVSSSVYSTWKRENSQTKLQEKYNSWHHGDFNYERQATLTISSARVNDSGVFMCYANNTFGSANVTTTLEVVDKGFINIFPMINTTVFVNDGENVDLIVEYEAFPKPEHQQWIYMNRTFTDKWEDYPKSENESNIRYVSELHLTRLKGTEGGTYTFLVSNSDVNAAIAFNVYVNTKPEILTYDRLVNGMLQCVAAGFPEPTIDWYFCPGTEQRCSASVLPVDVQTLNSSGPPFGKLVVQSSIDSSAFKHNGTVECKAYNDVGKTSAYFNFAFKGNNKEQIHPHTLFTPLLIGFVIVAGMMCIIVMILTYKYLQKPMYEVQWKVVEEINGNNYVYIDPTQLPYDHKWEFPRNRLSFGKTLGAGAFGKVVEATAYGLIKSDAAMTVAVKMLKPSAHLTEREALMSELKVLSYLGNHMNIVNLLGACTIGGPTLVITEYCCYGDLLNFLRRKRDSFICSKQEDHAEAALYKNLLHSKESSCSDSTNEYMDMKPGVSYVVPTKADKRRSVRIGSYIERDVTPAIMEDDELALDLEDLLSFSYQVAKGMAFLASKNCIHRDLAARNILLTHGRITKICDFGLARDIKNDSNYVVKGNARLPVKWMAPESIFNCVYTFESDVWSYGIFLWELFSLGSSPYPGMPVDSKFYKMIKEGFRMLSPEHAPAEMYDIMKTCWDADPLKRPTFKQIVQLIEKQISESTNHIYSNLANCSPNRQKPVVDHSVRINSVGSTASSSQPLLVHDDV

Cc1nc(C2CCN(C(=O)c3ccc(OC(F)(F)F)cc3N)CC2)c2ncc(N3CCN(C)CC3)cc2n1 [BAY-693]
inactive: [1] 100% | [2] 90% | [3] 100% | [4] 100% | [5] 81% | [6] 100% | [7] 100% | [8] 100% | [9] 100% | [10] 100% | [11] 100% | [12] 83% | [13] 100% | [14] 78%

CN1CCN(c2cnc3c(C4CCN(C(=O)c5ccc(OC(F)(F)F)cc5N)CC4)ncnc3c2)CC1 [BAY-885]
inactive: [1] 100% | [2] 98% | [3] 100% | [4] 81% | [5] 90% | [6] 100% | [7] 100% | [8] 100% | [9] 100% | [10] 100% | [11] 100% | [12] 100% | [13] 99% | [14] 87%
